Measured values published in the NIST ThermoML archive (doi:10.1021/acs.jced.7b00654).

Assay: xn = mol fraction of the nth substance listed
Settings: 96.7 kPa, Liquid, Vibrating tube method

CCCCn1cc[n+](C)c1.[Cl-] [1-butyl-3-methylimidazolium chloride] + CC(=O)N(C)C
mass density [kg/m3]
Settings | x1 = 0.177 | x1 = 0.332 | x1 = 0.428 | x1 = 0.538 | x1 = 0.664 | x1 = 0.816 | x1 = 0.904 | x1 = 1
303.15 K | 980.28 | 1010.24 | 1025.06 | 1038.52 | 1052.4 | 1066.29 | 1073.17 | 1079.41
308.15 K | 976.2 | 1006.61 | 1021.6 | 1035.1 | 1049.19 | 1063.28 | 1070.28 | 1076.58
313.15 K | 972.2 | 1002.98 | 1018.15 | 1031.7 | 1045.95 | 1060.2 | 1067.41 | 1073.78
318.15 K | 968.23 | 999.36 | 1014.71 | 1028.35 | 1042.78 | 1057.21 | 1064.54 | 1070.99
323.15 K | 964.27 | 995.75 | 1011.28 | 1024.85 | 1039.56 | 1054.27 | 1061.66 | 1068.19
328.15 K | 960.32 | 992.15 | 1007.86 | 1021.56 | 1036.44 | 1051.33 | 1058.85 | 1065.36
333.15 K | 956.38 | 988.55 | 1004.46 | 1018.33 | 1033.37 | 1048.41 | 1056.06 | 1062.6
338.15 K | 952.45 | 984.97 | 1001.06 | 1015.16 | 1030.34 | 1045.52 | 1053.26 | 1059.87
343.15 K | 948.53 | 981.38 | 997.67 | 1012.07 | 1027.37 | 1042.67 | 1050.47 | 1057.15
348.15 K | 944.61 | 977.8 | 994.29 | 1009.03 | 1024.45 | 1039.87 | 1047.69 | 1054.42
353.15 K | 940.67 | 974.22 | 990.92 | 1006.06 | 1021.59 | 1037.13 | 1044.91 | 1051.69

CCCCn1cc[n+](C)c1.[Cl-] [1-butyl-3-methylimidazolium chloride] + CN(C)C=O
mass density [kg/m3]
Settings | x1 = 0.151 | x1 = 0.295 | x1 = 0.385 | x1 = 0.493 | x1 = 0.626 | x1 = 0.79 | x1 = 0.887 | x1 = 1
303.15 K | 987.64 | 1016.34 | 1030.08 | 1043.12 | 1055.89 | 1067.73 | 1072.65 | 1079.41
308.15 K | 983.55 | 1012.63 | 1026.56 | 1039.78 | 1052.75 | 1064.72 | 1069.74 | 1076.58
313.15 K | 979.45 | 1008.93 | 1023.05 | 1036.46 | 1049.6 | 1061.75 | 1066.84 | 1073.78
318.15 K | 975.35 | 1005.24 | 1019.54 | 1033.15 | 1046.6 | 1058.83 | 1063.95 | 1070.99
323.15 K | 971.26 | 1001.56 | 1016.05 | 1029.85 | 1043.35 | 1055.91 | 1060.97 | 1068.19
328.15 K | 967.16 | 997.89 | 1012.57 | 1026.56 | 1040.24 | 1052.99 | 1058.13 | 1065.36
333.15 K | 963.07 | 994.21 | 1009.1 | 1023.29 | 1037.16 | 1050.07 | 1055.31 | 1062.6
338.15 K | 958.97 | 990.55 | 1005.66 | 1020.03 | 1034.08 | 1047.16 | 1052.48 | 1059.87
343.15 K | 954.87 | 986.89 | 1002.24 | 1016.78 | 1031.03 | 1044.26 | 1049.67 | 1057.15
348.15 K | 950.78 | 983.24 | 998.82 | 1013.55 | 1027.98 | 1041.39 | 1046.88 | 1054.42
353.15 K | 946.68 | 979.59 | 995.4 | 1010.33 | 1024.94 | 1038.53 | 1044.11 | 1051.69

CCCCn1cc[n+](C)c1.[Cl-] [1-butyl-3-methylimidazolium chloride] + C[S+](C)[O-]
mass density [kg/m3]
Settings | x1 = 0.161 | x1 = 0.309 | x1 = 0.401 | x1 = 0.509 | x1 = 0.641 | x1 = 0.801 | x1 = 0.894 | x1 = 1
303.15 K | 1090.42 | 1093.72 | 1092.13 | 1089.44 | 1086.22 | 1083.66 | 1081.72 | 1079.41
308.15 K | 1086.85 | 1089.98 | 1088.58 | 1086.09 | 1082.96 | 1080.69 | 1078.88 | 1076.58
313.15 K | 1083.14 | 1086.25 | 1085.04 | 1082.74 | 1079.73 | 1077.69 | 1075.99 | 1073.78
318.15 K | 1079.58 | 1082.54 | 1081.51 | 1079.35 | 1076.52 | 1074.71 | 1073.12 | 1070.99
323.15 K | 1075.76 | 1078.83 | 1078 | 1076.05 | 1073.33 | 1071.78 | 1070.22 | 1068.19
328.15 K | 1072.19 | 1075.14 | 1074.5 | 1072.7 | 1070.18 | 1068.87 | 1067.39 | 1065.36
333.15 K | 1068.87 | 1071.45 | 1071.01 | 1069.47 | 1067.09 | 1065.95 | 1064.59 | 1062.6
338.15 K | 1065.13 | 1067.76 | 1067.54 | 1066.13 | 1064.06 | 1063.04 | 1061.79 | 1059.87
343.15 K | 1061.44 | 1064.1 | 1064.07 | 1062.88 | 1061.11 | 1060.14 | 1058.99 | 1057.15
348.15 K | 1057.69 | 1060.44 | 1060.63 | 1059.65 | 1058.17 | 1057.25 | 1056.19 | 1054.42
353.15 K | 1053.72 | 1056.79 | 1057.19 | 1056.42 | 1055.25 | 1054.38 | 1053.41 | 1051.69

c1ccncc1 [pyridine] + CCCCn1cc[n+](C)c1.[Cl-]
mass density [kg/m3]
Settings | x2 = 0 | x2 = 0.163 | x2 = 0.313 | x2 = 0.404 | x2 = 0.514 | x2 = 0.644 | x2 = 0.803 | x2 = 0.895
303.15 K | 973.09 | 1013.2 | 1035.67 | 1045.6 | 1054.49 | 1063.34 | 1072.41 | 1075.89
308.15 K | 968.06 | 1009.09 | 1032.05 | 1042.19 | 1051.2 | 1060.26 | 1069.51 | 1073.02
313.15 K | 963.02 | 1004.97 | 1028.43 | 1038.78 | 1047.94 | 1057.18 | 1066.59 | 1070.16
318.15 K | 957.97 | 1000.85 | 1024.82 | 1035.39 | 1044.72 | 1054.11 | 1063.66 | 1067.3
323.15 K | 952.9 | 996.73 | 1021.21 | 1032.01 | 1041.52 | 1051.04 | 1060.72 | 1064.45
328.15 K | 947.82 | 992.6 | 1017.6 | 1028.63 | 1038.33 | 1047.99 | 1057.81 | 1061.65
333.15 K | 942.72 | 988.47 | 1014 | 1025.25 | 1035.14 | 1044.96 | 1054.92 | 1058.86
338.15 K | 937.6 | 984.34 | 1010.4 | 1021.89 | 1031.93 | 1041.94 | 1052.08 | 1056.09
343.15 K | 932.46 | 980.21 | 1006.81 | 1018.53 | 1028.66 | 1038.93 | 1049.29 | 1053.31
348.15 K | 927.3 | 976.06 | 1003.22 | 1015.17 | 1025.27 | 1035.92 | 1046.57 | 1050.53
353.15 K | 922.12 | 971.91 | 999.63 | 1011.79 | 1021.81 | 1032.89 | 1044.02 | 1047.77
